# According to patent US10550124B2, “Atropisomerism for increased kinase inhibitor selectivity” (SAN DIEGO STATE UNIVERSITY RESEARCH FOUNDATION, priority 2015, dated 2020):
# Values joined by “and” are separate entries in the source; they are usually repeats but may differ in a detail not shown here. Equal entries are not always repeated.
# What was measured:
# Type in all cases: biochemical
# Src kinase = Src kinase (Homo sapiens, UniProt P12931); assay: Z′-LYTE kinase inhibition assay, Src
# Excerpt: Based on the observed stereochemical stabilities, we chose 1f, 2e, and 2f for further study and obtained inhibition data against Src kinase from Life Technologies' Z′-LYTE™ kinase assay (Scheme 3).
# (§1) All samples were sent out to Life Technologies to obtain kinase inhibition data. A brief description of the assays and analyses are included below.
# (§2) Assay Theory (SelectScreen® Kinase Profiling Services (Life Technologies, Madison, Wis. USA). The Z′-LYTE® biochemical assay employs a fluorescence-based, coupled-enzyme format and is based on the differential sensitivity of phosphorylated and non-phosphorylated peptides to proteolytic cleavage. The peptide substrate is labeled with two fluorophores one at each end—that make up a FRET pair.
# (§3) In the primary reaction, the kinase transfers the gamma-phosphate of ATP to a single tyrosine, serine or threonine residue in a synthetic FRET-peptide. In the secondary reaction, a site-specific protease recognizes and cleaves non-phosphorylated FRET-peptides.
# (§4) Phosphorylation of FRET-peptides suppresses cleavage by the Development Reagent. Cleavage disrupts FRET between the donor (i.e., coumarin) and acceptor (i.e., fluorescein) fluorophores on the FRET-peptide, whereas uncleaved, phosphorylated FRET-peptides maintain FRET. A ratiometric method, which calculates the ratio (the Emission Ratio) of donor emission to acceptor emission after excitation of the donor fluorophore at 400 nm, is used to quantitate reaction progress, as shown in the equation below: […]
# (§5) A significant benefit of this ratiometric method for quantitating reaction progress is the elimination of well-to-well variations in FRET-peptide concentration and signal intensities. As a result, the assay yields very high Z′-factor values (>0.7) at a low percent phosphorylation. Both cleaved and uncleaved FRET-peptides contribute to the fluorescence signals and therefore to the Emission Ratio. The extent of phosphorylation of the FRET-peptide can be calculated from the Emission Ratio. The Emission Ratio will remain low if the FRET-peptide is phosphorylated (i.e., no kinase inhibition) and will he high if the FRET-peptide is non-phosphorylated (i.e., kinase inhibition).
# Lck = Lck (Homo sapiens, UniProt P06239); assay: Z′-LYTE kinase inhibition assay, Lck; details: average of 2 runs
# Excerpt: as §1, §2, §3, §4, §5
# Lyn = Lyn (Homo sapiens, UniProt P07948); assay: Z′-LYTE kinase inhibition assay, Lyn; details: average of 2 runs
# Lyn, sequence (P07948 whole entry): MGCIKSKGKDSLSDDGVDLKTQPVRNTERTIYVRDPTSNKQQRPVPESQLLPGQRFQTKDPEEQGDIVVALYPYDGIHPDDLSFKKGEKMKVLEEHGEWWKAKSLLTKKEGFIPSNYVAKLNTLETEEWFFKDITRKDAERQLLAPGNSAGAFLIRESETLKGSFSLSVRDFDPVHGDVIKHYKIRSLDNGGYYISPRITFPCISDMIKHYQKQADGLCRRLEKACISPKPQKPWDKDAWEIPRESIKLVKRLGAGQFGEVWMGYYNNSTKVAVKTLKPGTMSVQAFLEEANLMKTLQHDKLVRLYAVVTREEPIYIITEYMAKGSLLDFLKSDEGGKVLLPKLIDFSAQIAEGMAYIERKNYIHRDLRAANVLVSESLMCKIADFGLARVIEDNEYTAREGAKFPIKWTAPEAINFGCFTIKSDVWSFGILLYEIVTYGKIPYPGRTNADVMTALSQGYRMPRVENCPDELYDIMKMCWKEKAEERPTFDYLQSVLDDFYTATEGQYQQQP
# Excerpt: as §1, §2, §3, §4, §5
# Alk = Alk (Homo sapiens, UniProt Q9UM73); assay: Z′-LYTE kinase inhibition assay, Alk; details: average of 2 runs
# Excerpt: as §1, §2, §3, §4, §5
# Ret = Ret (Homo sapiens, UniProt P07949); assay: Z′-LYTE kinase inhibition assay, Ret
# Ret, sequence (P07949 29-1114): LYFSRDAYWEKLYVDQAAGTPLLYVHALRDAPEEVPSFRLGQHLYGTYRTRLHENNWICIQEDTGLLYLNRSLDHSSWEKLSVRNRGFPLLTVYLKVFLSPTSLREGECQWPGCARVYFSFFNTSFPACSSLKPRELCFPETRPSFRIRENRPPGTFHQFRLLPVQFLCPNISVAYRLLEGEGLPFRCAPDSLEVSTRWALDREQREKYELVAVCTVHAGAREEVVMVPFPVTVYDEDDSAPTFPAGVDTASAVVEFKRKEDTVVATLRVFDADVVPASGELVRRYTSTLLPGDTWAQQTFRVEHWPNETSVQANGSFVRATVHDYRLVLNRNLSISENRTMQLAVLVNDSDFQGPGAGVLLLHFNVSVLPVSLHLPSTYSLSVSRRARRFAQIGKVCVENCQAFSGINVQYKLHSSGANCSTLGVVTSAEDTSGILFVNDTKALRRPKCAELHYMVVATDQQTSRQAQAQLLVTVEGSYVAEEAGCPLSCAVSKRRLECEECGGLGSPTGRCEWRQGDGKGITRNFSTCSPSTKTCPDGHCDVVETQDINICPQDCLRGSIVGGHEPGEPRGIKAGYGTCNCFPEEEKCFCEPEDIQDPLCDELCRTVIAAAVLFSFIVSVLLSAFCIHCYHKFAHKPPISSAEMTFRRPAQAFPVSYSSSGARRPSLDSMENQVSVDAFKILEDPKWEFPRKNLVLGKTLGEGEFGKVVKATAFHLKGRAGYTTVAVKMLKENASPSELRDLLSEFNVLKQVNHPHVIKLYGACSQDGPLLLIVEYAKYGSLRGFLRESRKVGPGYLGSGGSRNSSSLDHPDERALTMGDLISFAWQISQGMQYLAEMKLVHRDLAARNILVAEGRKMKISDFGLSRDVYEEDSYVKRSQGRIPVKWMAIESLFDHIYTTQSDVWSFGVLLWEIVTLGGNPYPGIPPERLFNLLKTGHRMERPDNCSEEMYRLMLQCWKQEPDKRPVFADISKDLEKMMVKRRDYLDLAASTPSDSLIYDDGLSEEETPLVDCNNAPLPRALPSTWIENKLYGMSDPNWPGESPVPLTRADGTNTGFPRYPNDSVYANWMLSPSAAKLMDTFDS
# Excerpt: as §1, §2, §3, §4, §5
# Fgr = Fgr (Homo sapiens, UniProt P09769); assay: Z′-LYTE kinase inhibition assay, Fgr; details: average of 2 runs
# Excerpt: as §1, §2, §3, §4, §5
# Blk = Blk (Homo sapiens, UniProt P51451); assay: Z′-LYTE kinase inhibition assay, Blk; details: average of 2 runs
# Excerpt: as §1, §2, §3, §4, §5
# Fyn = Fyn (Homo sapiens, UniProt P06241); assay: Z′-LYTE kinase inhibition assay, Fyn; details: average of 2 runs
# Excerpt: as §1, §2, §3, §4, §5
# Her-2 = Her-2 (Homo sapiens, UniProt P04626); assay: Z′-LYTE kinase inhibition assay, Her-2; details: average of 2 runs
# Excerpt: as §1, §2, §3, §4, §5
# CSK = CSK (Homo sapiens, UniProt P41240); assay: Z′-LYTE kinase inhibition assay, CSK; details: average of 2 runs
# Excerpt: as §1, §2, §3, §4, §5
# [1] = system: panel of 18 tyrosine kinases; assay: Kinase inhibitor profiling across a panel of tyrosine kinases (selectivity); details: for S(40%): number of kinases inhibited greater than 40% divided by number of kinases tested (including Src)
# Experimental: In order to probe the effect of atropisomeric conformation on kinase selectivity we subjected 1f, 2e, and 2f to kinase inhibitor profiling across a panel of tyrosine kinases at 1000 nM and 5000 nM (data for 2e shown in Scheme 4 below).
# To analyze each analog's selectivity across the panel we turned to selectivity scores (Davis et al., Nat. Biotechnol. 2011, 29, 1046-51), simply the number of kinases inhibited above a certain threshold divided by the number of kinases evaluated. […] For example at 1000 nM 2e-(R) yielded an S(40%) of 0.11 while 2e-(S) gave an S(40%) of 0.16. […] Differences in selectivity between 2e-(R) and 2e-(S) at 5000 nM (4.5 times the IC50 of 2e-(S) toward Src) and for 5 at 1000 nM (6.25 times the IC50 of 5 toward Src) can be viewed graphically across tyrosine kinases (FIG. 3). Importantly, similar trends were also observed across each of the atropisomeric series tested.
# as §1, §2, §3, §4, §5
# pdgfr-a = pdgfr-a (Homo sapiens, UniProt P16234); assay: Z′-LYTE kinase inhibition assay, pdgfr-a; details: average of 2 runs
# Excerpt: as §1, §2, §3, §4, §5
# pdgfr-b = pdgfr-b (Homo sapiens, UniProt P09619); assay: Z′-LYTE kinase inhibition assay, pdgfr-b; details: average of 2 runs
# Excerpt: as §1, §2, §3, §4, §5
# Yes = Yes (Homo sapiens, UniProt P07947); assay: Z′-LYTE kinase inhibition assay, Yes
# Yes, sequence (P07947 whole entry): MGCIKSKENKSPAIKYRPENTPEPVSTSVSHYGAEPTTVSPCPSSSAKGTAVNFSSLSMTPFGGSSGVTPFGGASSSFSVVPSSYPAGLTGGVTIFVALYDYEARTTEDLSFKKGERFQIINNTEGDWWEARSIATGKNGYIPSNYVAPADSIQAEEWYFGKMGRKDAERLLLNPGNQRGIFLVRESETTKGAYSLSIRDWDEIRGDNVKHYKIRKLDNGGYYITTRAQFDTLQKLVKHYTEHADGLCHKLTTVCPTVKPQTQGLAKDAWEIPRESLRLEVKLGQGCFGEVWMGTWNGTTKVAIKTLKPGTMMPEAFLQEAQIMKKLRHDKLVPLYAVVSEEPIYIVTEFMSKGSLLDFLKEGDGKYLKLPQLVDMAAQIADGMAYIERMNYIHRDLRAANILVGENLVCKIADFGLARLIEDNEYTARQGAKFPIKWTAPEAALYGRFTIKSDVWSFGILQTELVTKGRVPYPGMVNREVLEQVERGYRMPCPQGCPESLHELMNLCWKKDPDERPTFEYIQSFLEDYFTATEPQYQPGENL
# Excerpt: as §1, §2, §3, §4, §5
# BTK = BTK (Homo sapiens, UniProt Q06187); assay: Z′-LYTE kinase inhibition assay, BTK; details: average of 2 runs
# Excerpt: as §1, §2, §3, §4, §5
# Kit = Kit (Homo sapiens, UniProt P10721); assay: Z′-LYTE kinase inhibition assay, Kit; details: average of 2 runs
# Excerpt: as §1, §2, §3, §4, §5
# Abl = Abl (Homo sapiens, UniProt P00519); assay: Z′-LYTE kinase inhibition assay, Abl
# Abl, sequence (P00519 whole entry): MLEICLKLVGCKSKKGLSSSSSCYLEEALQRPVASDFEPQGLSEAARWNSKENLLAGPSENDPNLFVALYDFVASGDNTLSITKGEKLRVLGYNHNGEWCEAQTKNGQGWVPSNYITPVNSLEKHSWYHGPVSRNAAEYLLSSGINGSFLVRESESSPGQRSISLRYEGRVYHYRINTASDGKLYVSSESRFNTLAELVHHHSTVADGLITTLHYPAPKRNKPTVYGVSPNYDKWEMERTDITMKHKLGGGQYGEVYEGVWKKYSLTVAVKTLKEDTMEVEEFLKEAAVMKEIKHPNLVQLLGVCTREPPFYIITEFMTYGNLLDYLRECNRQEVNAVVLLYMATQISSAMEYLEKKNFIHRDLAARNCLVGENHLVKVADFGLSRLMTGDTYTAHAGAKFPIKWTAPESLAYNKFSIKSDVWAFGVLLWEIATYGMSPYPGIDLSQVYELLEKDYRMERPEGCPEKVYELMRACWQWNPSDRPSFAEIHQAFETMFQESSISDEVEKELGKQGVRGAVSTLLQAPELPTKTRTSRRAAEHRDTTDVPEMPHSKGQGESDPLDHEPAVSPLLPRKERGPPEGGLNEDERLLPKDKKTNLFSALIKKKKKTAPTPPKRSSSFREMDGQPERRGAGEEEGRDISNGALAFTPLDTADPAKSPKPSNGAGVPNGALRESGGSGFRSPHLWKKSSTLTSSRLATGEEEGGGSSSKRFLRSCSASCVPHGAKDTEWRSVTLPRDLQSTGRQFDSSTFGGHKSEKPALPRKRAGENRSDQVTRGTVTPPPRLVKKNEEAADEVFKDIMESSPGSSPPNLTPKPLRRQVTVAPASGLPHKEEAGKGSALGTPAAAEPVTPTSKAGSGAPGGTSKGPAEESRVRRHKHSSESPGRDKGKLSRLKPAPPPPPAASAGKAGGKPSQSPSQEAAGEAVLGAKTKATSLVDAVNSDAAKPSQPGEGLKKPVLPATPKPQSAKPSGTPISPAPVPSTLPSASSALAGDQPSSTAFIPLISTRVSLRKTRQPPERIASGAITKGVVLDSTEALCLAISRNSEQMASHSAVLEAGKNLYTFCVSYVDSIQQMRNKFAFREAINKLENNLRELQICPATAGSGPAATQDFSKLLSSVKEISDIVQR
# Excerpt: as §1, §2, §3, §4, §5
# EGFR = EGFR (Homo sapiens, UniProt P00533); assay: Z′-LYTE kinase inhibition assay, EGFR
# EGFR, sequence (P00533 25-1210): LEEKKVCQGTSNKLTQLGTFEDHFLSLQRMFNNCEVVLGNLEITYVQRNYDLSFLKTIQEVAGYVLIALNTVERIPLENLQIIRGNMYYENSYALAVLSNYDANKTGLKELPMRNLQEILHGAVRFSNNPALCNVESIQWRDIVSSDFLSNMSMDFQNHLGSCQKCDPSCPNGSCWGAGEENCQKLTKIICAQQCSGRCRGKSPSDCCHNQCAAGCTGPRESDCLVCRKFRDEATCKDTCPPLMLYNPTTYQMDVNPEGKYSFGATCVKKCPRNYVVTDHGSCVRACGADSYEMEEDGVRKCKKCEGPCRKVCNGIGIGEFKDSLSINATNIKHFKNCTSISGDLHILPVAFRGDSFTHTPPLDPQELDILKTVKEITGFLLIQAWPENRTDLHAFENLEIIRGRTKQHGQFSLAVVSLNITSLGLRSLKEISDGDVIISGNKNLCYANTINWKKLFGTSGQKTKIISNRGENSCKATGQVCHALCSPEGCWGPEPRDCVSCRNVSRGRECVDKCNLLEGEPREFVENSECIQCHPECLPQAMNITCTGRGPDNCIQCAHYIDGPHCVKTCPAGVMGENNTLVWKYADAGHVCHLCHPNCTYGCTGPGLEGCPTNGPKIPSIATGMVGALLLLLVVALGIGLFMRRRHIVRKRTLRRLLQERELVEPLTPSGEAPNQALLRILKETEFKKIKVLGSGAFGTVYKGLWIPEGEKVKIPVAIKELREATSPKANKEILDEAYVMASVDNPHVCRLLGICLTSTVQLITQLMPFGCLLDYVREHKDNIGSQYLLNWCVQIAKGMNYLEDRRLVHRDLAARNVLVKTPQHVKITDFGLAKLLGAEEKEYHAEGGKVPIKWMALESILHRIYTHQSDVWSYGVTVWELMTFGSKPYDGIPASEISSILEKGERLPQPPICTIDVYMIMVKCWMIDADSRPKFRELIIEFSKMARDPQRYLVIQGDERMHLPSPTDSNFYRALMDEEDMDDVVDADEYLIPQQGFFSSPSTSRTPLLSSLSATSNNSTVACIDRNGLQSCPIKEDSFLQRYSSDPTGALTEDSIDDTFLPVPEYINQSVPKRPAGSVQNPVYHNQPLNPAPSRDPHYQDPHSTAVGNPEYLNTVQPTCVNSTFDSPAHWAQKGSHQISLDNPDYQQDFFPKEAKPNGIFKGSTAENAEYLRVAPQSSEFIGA
# Excerpt: as §1, §2, §3, §4, §5
# Hck = Hck (Homo sapiens, UniProt P08631); assay: Z′-LYTE kinase inhibition assay, Hck; details: average of 2 runs
# Excerpt: as §1, §2, §3, §4, §5
# Src kinase, sequence (P12931 whole entry): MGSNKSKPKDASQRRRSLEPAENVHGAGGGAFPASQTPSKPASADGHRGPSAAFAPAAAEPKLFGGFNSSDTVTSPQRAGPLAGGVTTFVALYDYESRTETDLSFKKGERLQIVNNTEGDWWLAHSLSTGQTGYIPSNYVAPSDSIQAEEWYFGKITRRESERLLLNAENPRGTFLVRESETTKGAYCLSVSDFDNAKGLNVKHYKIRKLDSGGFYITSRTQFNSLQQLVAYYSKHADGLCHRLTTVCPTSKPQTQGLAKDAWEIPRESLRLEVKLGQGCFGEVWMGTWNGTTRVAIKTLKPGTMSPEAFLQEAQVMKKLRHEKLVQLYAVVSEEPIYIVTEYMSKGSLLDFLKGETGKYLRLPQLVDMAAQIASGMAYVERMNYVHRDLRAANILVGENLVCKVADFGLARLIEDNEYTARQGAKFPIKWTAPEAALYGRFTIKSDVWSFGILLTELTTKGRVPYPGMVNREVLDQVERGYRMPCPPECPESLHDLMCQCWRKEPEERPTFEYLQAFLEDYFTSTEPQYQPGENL
compound,measurement,setting,value
"COc1cccc(-c2cn(C(C)(C)C)c3ncnc(N)c23)c1 [Compound 5, reference compound]",IC50 of Kinase/IC50 of Yes,Src kinase; Src relative to Yes,1.64
same,IC50,"Src kinase; Src, error is standard deviation",151 nM
same,inhibition at 0.2 µM,Lck; 200 nM,32%
same,inhibition at 1 µM,Lck; 1000 nM,79%
same,inhibition at 0.2 µM,Lyn; 200 nM,58%
same,inhibition at 1 µM,Lyn; 1000 nM,85%
same,inhibition at 0.2 µM,Alk; 200 nM,11%
same,inhibition at 1 µM,Alk; 1000 nM,23%
same,IC50 of Kinase/IC50 of Yes,Ret; Ret relative to Yes,1.4
same,inhibition at 0.2 µM,"Ret; Ret, 200 nM, average of 2 runs",59%
same,inhibition at 1 µM,"Ret; Ret, 1000 nM, average of 2 runs",89%
same,IC50,"Ret; Ret, error is standard deviation",128 nM
same,inhibition at 0.2 µM,Fgr; 200 nM,69%
same,inhibition at 1 µM,Fgr; 1000 nM,92%
same,inhibition at 0.2 µM,Blk; 200 nM,38%
same,inhibition at 1 µM,Blk; 1000 nM,74%
same,inhibition at 0.2 µM,Fyn; 200 nM,56%
same,inhibition at 1 µM,Fyn; 1000 nM,84%
same,inhibition at 0.2 µM,Her-2; 200 nM,4%
same,inhibition at 1 µM,Her-2; 1000 nM,16%
same,inhibition at 0.2 µM,CSK; 200 nM,36%
same,inhibition at 1 µM,CSK; 1000 nM,65%
same,S(40%),[1]; 200 nM,0.44
same,S(40%),[1]; 1000 nM,0.72
same,"relative selectivities favoring Yes (IC50 kinase/IC50 YES) over Ret, Src, and Abl","[1]; Ret, Src, Abl vs Yes",1.4-2.65 fold
same,inhibition at 0.2 µM,pdgfr-a; 200 nM,11%
same,inhibition at 1 µM,pdgfr-a; 1000 nM,34%
same,inhibition at 0.2 µM,pdgfr-b; 200 nM,6%
same,inhibition at 1 µM,pdgfr-b; 1000 nM,19%
same,IC50 of Kinase/IC50 of Yes,Yes; Yes relative to Yes,1
same,inhibition at 0.2 µM,"Yes; Yes, 200 nM, average of 2 runs",63%
same,inhibition at 1 µM,"Yes; Yes, 1000 nM, average of 2 runs",90%
same,IC50,"Yes; Yes, error is standard deviation",92 nM
same,inhibition at 0.2 µM,BTK; 200 nM,62%
same,inhibition at 1 µM,BTK; 1000 nM,90%
same,inhibition at 0.2 µM,Kit; 200 nM,8%
same,inhibition at 1 µM,Kit; 1000 nM,27%
same,IC50 of Kinase/IC50 of Yes,Abl; Abl relative to Yes,2.65
same,inhibition at 0.2 µM,"Abl; Abl, 200 nM, average of 2 runs",37%
same,inhibition at 1 µM,"Abl; Abl, 1000 nM, average of 2 runs",78%
same,IC50,"Abl; Abl, error is standard deviation",244 nM
same,IC50 of Kinase/IC50 of Yes,EGFR; EGFR relative to Yes,7 and 6.96
same,inhibition at 0.2 µM,"EGFR; EGFR, 200 nM, average of 2 runs",28%
same,inhibition at 1 µM,"EGFR; EGFR, 1000 nM, average of 2 runs",62%
same,IC50,"EGFR; EGFR, error is standard deviation",641 nM
same,inhibition at 0.2 µM,Hck; 200 nM,59%
same,inhibition at 1 µM,Hck; 1000 nM,80%
